In patent publication US20190365675A1, “COMPOSITIONS FOR THE PREVENTION AND/OR TREATMENT OF ALCOHOL USE DISORDERS” (SERVICIO ANDALUZ DE SALUD, priority 2016, published 2019):

Experiments:
[1] = test system: LPS; experiment: Plasma LPS levels (intestinal permeability to endotoxins); assay type: in vivo, Wistar rats; conditions: animals pretreated with OEA and receiving ethanol; ethanol alone about 80%; does not differ from control or ethanol group
Description: The animals were treated with intragastric (i.g.) ethanol 3 times a day using an i.g. cannula (16G needle, Fisher Scientific, Waltham, Mass., USA), following a protocol based on a slightly modified standard 4-day alcohol intoxication pattern (Bernier et al., 2002a, b) (FIG. 1A). The ethanol doses were administered every 8 h for a total time of 4 days. The rats treated with ethanol received an initial loading dose of 5 g/kg of ethanol in a 30% solution (w/v) and then a maximum maintenance dose of 3 g/kg, which were determined based on blood ethanol levels (BEL). This repeated standard alcohol intoxication paradigm kept BEL intoxication relatively constant in a range of sedation/ataxia (190 to 430 mg/dl, Table 3), according to the 6-point alcohol intoxication behavior scale (Majchrowicz, 1975). The mean dose of ethanol/rat/day (days 1-4) was 7.06 g/kg, similar to other studies (Obernier et al., 2002a, b). […]
Corticosterone and LPS were measured in plasma by means of the use of radioimmunoassay (R.I.A.) kits available on the market (Coat-A-Count®, Siemens, La., USA) or colorimetric enzymatic reaction (HyCult Biotech, Uden, Netherlands), respectively.

[2] = test system: HMGB1; experiment: HMGB1 levels (ELISA) and nuclear/cytoplasmic ratio (Western blot) in frontal cortex after ethanol intoxication; assay type: in vivo, Wistar rats
Description: The animals were treated with intragastric (i.g.) ethanol 3 times a day using an i.g. cannula (16G needle, Fisher Scientific, Waltham, Mass., USA), following a protocol based on a slightly modified standard 4-day alcohol intoxication pattern (Bernier et al., 2002a, b) (FIG. 1A). The ethanol doses were administered every 8 h for a total time of 4 days. The rats treated with ethanol received an initial loading dose of 5 g/kg of ethanol in a 30% solution (w/v) and then a maximum maintenance dose of 3 g/kg, which were determined based on blood ethanol levels (BEL). This repeated standard alcohol intoxication paradigm kept BEL intoxication relatively constant in a range of sedation/ataxia (190 to 430 mg/dl, Table 3), according to the 6-point alcohol intoxication behavior scale (Majchrowicz, 1975). […] The autoradiograph was quantified by densitometry (NIH ImageJ® software, National Biosciences, Lincoln, Nebr. USA) and expressed as optical density (OD). […] The levels of soluble HMGB1, TNF-α, IL-1β and MCP-1 were determined by means of a commercially available enzyme-linked immunosorbent assay kit (ELISA) (Elabscience Biotechnology Co., Ltd., China, for HMGB-1; RayBiotech®, GA, USA, for TNF-α, IL-1β, and MCP-1). The nuclear/cytosol HMGB1 fraction was determined by means of Western blot analysis.

CCCCCCCC/C=C\CCCCCCCC(=O)NCCO [OEA, oleoylethanolamide]
Plasma LPS levels, increase with respect to the control [1]: 44% | Ethanol intoxication-induced increase in HMGB1 (ELISA) ([2]; 2-4 h after last ethanol, OEA 5 mg/kg i.p. (initial 10 mg/kg) 10 min before each ethanol): prevented | HMGB1 n/c ratio (nuclear/cytoplasmic, Western blot) ([2]; OEA + ethanol, ethanol alone 1.21, control 1.3): 1.48
